Source: ChEMBL document CHEMBL3885861, “Open TG-GATES”

Species on record: Rattus norvegicus
Experiment: Open TG-GATES - Regimen: Single
Type: toxicity, organism-based, Sprague-Dawley
Design: regimen Single, gender Male, age 6 weeks
Conditions: in vivo, po, route gavage; for APTT / Bas / Eos / Fbg / Hb / Ht / Lym / MCH / MCHC / MCV / Mono / Neu / PT / Plat / RBC / Ret / WBC: tissue Blood; for KIDNEY_L / KIDNEY_R / KIDNEY_TOTAL: tissue Kidney; for LIVER: tissue Liver; for A/G / ALP / ALT / AST / BUN / CRE / Ca / Cl / DBIL / GLC / IP / K / LDH / Na / PL / RALB / TBIL / TC / TG / TP / gamma-GTP: tissue Plasma
[1] = 100 mg/kg, 3 h, dose level Middle
[2] = 100 mg/kg, 6 h, dose level Middle
[3] = 100 mg/kg, 9 h, dose level Middle
[4] = 100 mg/kg, 24 h, dose level Middle
[5] = 300 mg/kg, 3 h, dose level High
[6] = 300 mg/kg, 6 h, dose level High
[7] = 300 mg/kg, 9 h, dose level High
[8] = 300 mg/kg, 24 h, dose level High

Cc1cccc(Nc2ccccc2C(=O)O)c1C [MEFENAMIC ACID]
TERMINAL_BW [1]: 218.5 g
APTT [1]: 19.2 s
Bas [1]: 0%
Eos [1]: 0.8%
Fbg [1]: 218.2 mg/dL
Hb [1]: 13.3 g/dL
Ht [1]: 37.3%
Lym [1]: 80%
MCH [1]: 21.8 pg
MCHC [1]: 35.5%
MCV [1]: 61.4 fL
Mono [1]: 2.2%
Neu [1]: 15%
PT [1]: 12.2 s
Plat [1]: 114.3 x10_4/uL
RBC [1]: 608.6 x10_4/ul
Ret [1]: 7.4%
WBC [1]: 104.3 x10_2/uL
KIDNEY_L [1]: 1 g
KIDNEY_R [1]: 1 g
KIDNEY_TOTAL [1]: 1.9 g
LIVER [1]: 9.9 g
A/G [1]: 1.6
ALP [1]: 1058 IU/L
ALT [1]: 37.6 IU/L
AST [1]: 67.8 IU/L
BUN [1]: 12.4 mg/dL
CRE [1]: 0.4 mg/dL
Ca [1]: 10.7 mg/dL
Cl [1]: 103.4 meq/L
DBIL [1]: 0.074 mg/dL
GLC [1]: 196.8 mg/dL
IP [1]: 8.6 mg/dL
K [1]: 4.1 meq/L
LDH [1]: 184 IU/L
Na [1]: 140.8 meq/L
PL [1]: 141.4 mg/dL
RALB [1]: 3.4 g/dL
TBIL [1]: 0.1 mg/dL
TC [1]: 78.6 mg/dL
TG [1]: 43.4 mg/dL
TP [1]: 5.5 g/dL
gamma-GTP [1]: 1.6 IU/L
TERMINAL_BW [2]: 215.4 g
APTT [2]: 18.2 s
Bas [2]: 0%
Eos [2]: 1%
Fbg [2]: 225.6 mg/dL
Hb [2]: 13 g/dL
Ht [2]: 37.2%
Lym [2]: 76.2%
MCH [2]: 21.7 pg
MCHC [2]: 35.1%
MCV [2]: 61.8 fL
Mono [2]: 2.6%
Neu [2]: 18.6%
PT [2]: 12.6 s
Plat [2]: 108.7 x10_4/uL
RBC [2]: 602.4 x10_4/ul
Ret [2]: 7.6%
WBC [2]: 76.8 x10_2/uL
KIDNEY_L [2]: 1 g
KIDNEY_R [2]: 1 g
KIDNEY_TOTAL [2]: 2 g
LIVER [2]: 9.6 g
A/G [2]: 1.6
ALP [2]: 782.4 IU/L
ALT [2]: 36.8 IU/L
AST [2]: 64.2 IU/L
BUN [2]: 11 mg/dL
CRE [2]: 0.3 mg/dL
Ca [2]: 10.5 mg/dL
Cl [2]: 103 meq/L
DBIL [2]: 0.064 mg/dL
GLC [2]: 185.4 mg/dL
IP [2]: 9 mg/dL
K [2]: 4.1 meq/L
LDH [2]: 160.4 IU/L
Na [2]: 139.8 meq/L
PL [2]: 139.6 mg/dL
RALB [2]: 3.3 g/dL
TBIL [2]: 0.1 mg/dL
TC [2]: 77.6 mg/dL
TG [2]: 48.4 mg/dL
TP [2]: 5.4 g/dL
gamma-GTP [2]: 1.4 IU/L
TERMINAL_BW [3]: 211.6 g
APTT [3]: 17.9 s
Bas [3]: 0%
Eos [3]: 1%
Fbg [3]: 216.4 mg/dL
Hb [3]: 13.6 g/dL
Ht [3]: 38.1%
Lym [3]: 77.2%
MCH [3]: 22.3 pg
MCHC [3]: 35.8%
MCV [3]: 62.4 fL
Mono [3]: 2.2%
Neu [3]: 18.2%
PT [3]: 12.7 s
Plat [3]: 112.5 x10_4/uL
RBC [3]: 611 x10_4/ul
Ret [3]: 7.2%
WBC [3]: 77.1 x10_2/uL
KIDNEY_L [3]: 0.9 g
KIDNEY_R [3]: 0.9 g
KIDNEY_TOTAL [3]: 1.8 g
LIVER [3]: 8.6 g
A/G [3]: 1.6
ALP [3]: 955.2 IU/L
ALT [3]: 30.8 IU/L
AST [3]: 61.6 IU/L
BUN [3]: 12.2 mg/dL
CRE [3]: 0.4 mg/dL
Ca [3]: 10.4 mg/dL
Cl [3]: 103 meq/L
DBIL [3]: 0.06 mg/dL
GLC [3]: 196.2 mg/dL
IP [3]: 9.4 mg/dL
K [3]: 3.7 meq/L
LDH [3]: 184.6 IU/L
Na [3]: 140.2 meq/L
PL [3]: 127.8 mg/dL
RALB [3]: 3.4 g/dL
TBIL [3]: 0.1 mg/dL
TC [3]: 72.4 mg/dL
TG [3]: 29.6 mg/dL
TP [3]: 5.5 g/dL
gamma-GTP [3]: 1 IU/L
TERMINAL_BW [4]: 227 g
APTT [4]: 17.3 s
Bas [4]: 0%
Eos [4]: 1%
Fbg [4]: 209.2 mg/dL
Hb [4]: 13 g/dL
Ht [4]: 37.3%
Lym [4]: 72.6%
MCH [4]: 22.1 pg
MCHC [4]: 35%
MCV [4]: 63.2 fL
Mono [4]: 2.8%
Neu [4]: 21.2%
PT [4]: 12.1 s
Plat [4]: 119.7 x10_4/uL
RBC [4]: 590.4 x10_4/ul
Ret [4]: 7%
WBC [4]: 99.5 x10_2/uL
KIDNEY_L [4]: 1 g
KIDNEY_R [4]: 1.1 g
KIDNEY_TOTAL [4]: 2.1 g
LIVER [4]: 11 g
A/G [4]: 1.6
ALP [4]: 883 IU/L
ALT [4]: 39.2 IU/L
AST [4]: 67.2 IU/L
BUN [4]: 14.2 mg/dL
CRE [4]: 0.4 mg/dL
Ca [4]: 10.9 mg/dL
Cl [4]: 102.8 meq/L
DBIL [4]: 0.092 mg/dL
GLC [4]: 190.6 mg/dL
IP [4]: 7.5 mg/dL
K [4]: 4.3 meq/L
LDH [4]: 196.4 IU/L
Na [4]: 139.8 meq/L
PL [4]: 151.8 mg/dL
RALB [4]: 3.5 g/dL
TBIL [4]: 0.1 mg/dL
TC [4]: 81 mg/dL
TG [4]: 88.8 mg/dL
TP [4]: 5.6 g/dL
gamma-GTP [4]: 1.4 IU/L
TERMINAL_BW [5]: 215.2 g
APTT [5]: 18.8 s
Bas [5]: 0%
Eos [5]: 1.2%
Fbg [5]: 229.4 mg/dL
Hb [5]: 12.9 g/dL
Ht [5]: 36.2%
Lym [5]: 73.6%
MCH [5]: 21.8 pg
MCHC [5]: 35.6%
MCV [5]: 61.3 fL
Mono [5]: 2.8%
Neu [5]: 20.2%
PT [5]: 12.4 s
Plat [5]: 115.5 x10_4/uL
RBC [5]: 591.2 x10_4/ul
Ret [5]: 7.5%
WBC [5]: 95.9 x10_2/uL
KIDNEY_L [5]: 1 g
KIDNEY_R [5]: 1 g
KIDNEY_TOTAL [5]: 2 g
LIVER [5]: 9.5 g
A/G [5]: 1.5
ALP [5]: 832.8 IU/L
ALT [5]: 35.8 IU/L
AST [5]: 66.4 IU/L
BUN [5]: 11.6 mg/dL
CRE [5]: 0.4 mg/dL
Ca [5]: 10.7 mg/dL
Cl [5]: 102.6 meq/L
DBIL [5]: 0.072 mg/dL
GLC [5]: 181.2 mg/dL
IP [5]: 8.6 mg/dL
K [5]: 4.3 meq/L
LDH [5]: 184 IU/L
Na [5]: 139.6 meq/L
PL [5]: 134.2 mg/dL
RALB [5]: 3.2 g/dL
TBIL [5]: 0.1 mg/dL
TC [5]: 73.2 mg/dL
TG [5]: 38.4 mg/dL
TP [5]: 5.4 g/dL
gamma-GTP [5]: 1.4 IU/L
TERMINAL_BW [6]: 215.5 g
APTT [6]: 18.9 s
Bas [6]: 0%
Eos [6]: 1%
Fbg [6]: 220 mg/dL
Hb [6]: 13.2 g/dL
Ht [6]: 36.8%
Lym [6]: 73.2%
MCH [6]: 21.5 pg
MCHC [6]: 35.8%
MCV [6]: 60.2 fL
Mono [6]: 3%
Neu [6]: 19.6%
PT [6]: 12.7 s
Plat [6]: 114.8 x10_4/uL
RBC [6]: 612.4 x10_4/ul
Ret [6]: 7.5%
WBC [6]: 106.7 x10_2/uL
KIDNEY_L [6]: 1 g
KIDNEY_R [6]: 1 g
KIDNEY_TOTAL [6]: 2 g
LIVER [6]: 8.8 g
A/G [6]: 1.6
ALP [6]: 1032.8 IU/L
ALT [6]: 31.2 IU/L
AST [6]: 60.8 IU/L
BUN [6]: 13 mg/dL
CRE [6]: 0.3 mg/dL
Ca [6]: 10.4 mg/dL
Cl [6]: 104.2 meq/L
DBIL [6]: 0.06 mg/dL
GLC [6]: 194.6 mg/dL
IP [6]: 9.1 mg/dL
K [6]: 4.1 meq/L
LDH [6]: 175 IU/L
Na [6]: 140.2 meq/L
PL [6]: 133.4 mg/dL
RALB [6]: 3.3 g/dL
TBIL [6]: 0.1 mg/dL
TC [6]: 75.4 mg/dL
TG [6]: 39 mg/dL
TP [6]: 5.4 g/dL
gamma-GTP [6]: 1 IU/L
TERMINAL_BW [7]: 211.4 g
APTT [7]: 17.9 s
Bas [7]: 0%
Eos [7]: 1%
Fbg [7]: 221 mg/dL
Hb [7]: 13.1 g/dL
Ht [7]: 36.7%
Lym [7]: 70.4%
MCH [7]: 21.7 pg
MCHC [7]: 35.7%
MCV [7]: 60.7 fL
Mono [7]: 2.6%
Neu [7]: 22.8%
PT [7]: 13.1 s
Plat [7]: 112.4 x10_4/uL
RBC [7]: 604.8 x10_4/ul
Ret [7]: 7.5%
WBC [7]: 77.5 x10_2/uL
KIDNEY_L [7]: 1 g
KIDNEY_R [7]: 1 g
KIDNEY_TOTAL [7]: 2 g
LIVER [7]: 8.1 g
A/G [7]: 1.6
ALP [7]: 800.8 IU/L
ALT [7]: 29.8 IU/L
AST [7]: 58.8 IU/L
BUN [7]: 14.2 mg/dL
CRE [7]: 0.4 mg/dL
Ca [7]: 10.5 mg/dL
Cl [7]: 104.8 meq/L
DBIL [7]: 0.068 mg/dL
GLC [7]: 187.4 mg/dL
IP [7]: 9.4 mg/dL
K [7]: 4.2 meq/L
LDH [7]: 173.6 IU/L
Na [7]: 140.8 meq/L
PL [7]: 119 mg/dL
RALB [7]: 3.4 g/dL
TBIL [7]: 0.1 mg/dL
TC [7]: 65 mg/dL
TG [7]: 35.6 mg/dL
TP [7]: 5.5 g/dL
gamma-GTP [7]: 1 IU/L
TERMINAL_BW [8]: 225 g
APTT [8]: 18.3 s
Bas [8]: 0%
Eos [8]: 0.8%
Fbg [8]: 289.8 mg/dL
Hb [8]: 12.9 g/dL
Ht [8]: 36.8%
Lym [8]: 60.4%
MCH [8]: 22 pg
MCHC [8]: 35.1%
MCV [8]: 62.8 fL
Mono [8]: 3%
Neu [8]: 31.4%
PT [8]: 11.8 s
Plat [8]: 115.4 x10_4/uL
RBC [8]: 585.4 x10_4/ul
Ret [8]: 7%
WBC [8]: 131.5 x10_2/uL
KIDNEY_L [8]: 1 g
KIDNEY_R [8]: 1 g
KIDNEY_TOTAL [8]: 2.1 g
LIVER [8]: 10.5 g
A/G [8]: 1.5
ALP [8]: 850.8 IU/L
ALT [8]: 36 IU/L
AST [8]: 61.4 IU/L
BUN [8]: 14.2 mg/dL
CRE [8]: 0.4 mg/dL
Ca [8]: 10.4 mg/dL
Cl [8]: 103.6 meq/L
DBIL [8]: 0.08 mg/dL
GLC [8]: 185.2 mg/dL
IP [8]: 7.8 mg/dL
K [8]: 3.8 meq/L
LDH [8]: 187.2 IU/L
Na [8]: 141.4 meq/L
PL [8]: 133.4 mg/dL
RALB [8]: 3 g/dL
TBIL [8]: 0.1 mg/dL
TC [8]: 67 mg/dL
TG [8]: 100.2 mg/dL
TP [8]: 5 g/dL
gamma-GTP [8]: 2 IU/L
